Experimental data: the supplement of paper PMC9663587

Tests used:
Assay in all cases: GRmax, 72 h; higher = less effect;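 also: breast cell lines in 384-well plates, nine doses across a 10^4 range, Dye Drop imaging of viable cells vs DMSO and time-zero plates, GR 0 means no net growth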
CAL51 = tested on: CAL51
CAMA1 = tested on: CAMA1
EVSAT = tested on: EVSAT
HCC1937 = tested on: HCC1937
MCF12A = tested on: MCF12A
MDAMB231 = tested on: MDAMB231
MDAMB361 = tested on: MDAMB361
MGH312 = tested on: MGH312
SUM1315 = tested on: SUM1315
SUM149 = tested on: SUM149
SUM52PE = tested on: SUM52PE
T47D = tested on: T47D

Row | Structure (SMILES) | GRmax, 72 h (CAL51) [GR] | GRmax, 72 h (CAMA1) [GR] | GRmax, 72 h (EVSAT) [GR] | GRmax, 72 h (HCC1937) [GR] | GRmax, 72 h (MCF12A) [GR] | GRmax, 72 h (MDAMB231) [GR] | GRmax, 72 h (MDAMB361) [GR] | GRmax, 72 h (MGH312) [GR] | GRmax, 72 h (SUM1315) [GR] | GRmax, 72 h (SUM149) [GR] | GRmax, 72 h (SUM52PE) [GR] | GRmax, 72 h (T47D) [GR]
1 | COc1cc(N2CCN(C)CC2)ccc1Nc1ncc2c(n1)N(C)c1ccccc1C(=O)N2CC(F)(F)F [FMF-03-146-1] | 0.922 | 0.82 | 0.994 | 0.846 | 0.95 | 0.874 | 0.362 | 0.866 | 0.824 | 0.971 | 1.04 | 0.683
2 | CN1CC[C@H](c2c(O)cc(O)c3c(=O)cc(-c4ccccc4Cl)oc23)[C@H](O)C1 [Flavopiridol] (max 1 µM) | -0.0935 | -0.13 | -0.514 | -0.215 | -0.15 | -0.441 | -0.389 | -0.945 | -0.887 | -0.605 | -0.193 | -0.134
3 | CC(C)n1nc(-c2ccc3oc(N)nc3c2)c2c(N)ncnc21 [INK128/MLN0128] (max 3.162 µM) | 0.0529 | -0.0962 | -0.31 | 0.358 | 0.103 | 0.101 | -0.846 | -0.89 | 0.0256 | 0.268 | -0.161 | -0.0486
4 | CC(C)NC[C@@H](C(=O)N1CCN(c2ncnc3c2[C@H](C)C[C@H]3O)CC1)c1ccc(Cl)cc1 [Ipatasertib/GDC0068] (max 10 µM) | 0.387 | -0.236 | -0.311 | 0.535 | 0.654 | 0.925 | -0.58 | -0.936 | 0.607 | 0.291 | 0.271 | 0.133
5 | CN(C)C(=O)c1cc2cnc(Nc3ccc(N4CCNCC4)cn3)nc2n1C1CCCC1 [LEE011/Ribociclib] (max 10 µM) | 0.385 | 0.122 | 0.616 | 1.03 | 0.789 | 0.204 | 0.0436 | 0.894 | 0.444 | 0.605 | 0.528 | 0.15
6 | CCNC(=O)c1noc(-c2cc(C(C)C)c(O)cc2O)c1-c1ccc(CN2CCOCC2)cc1 [Luminespib/NVP-AUY922] (max 1 µM) | -0.339 | -0.0698 | -0.29 | -0.187 | -0.316 | -0.178 | -0.885 | -0.685 | -0.081 | -0.392 | -0.0956 | 0.0212
7 | CCOc1cc2ncc(C#N)c(Nc3ccc(OCc4ccccn4)c(Cl)c3)c2cc1NC(=O)/C=C/CN(C)C [Neratinib/HKI272] (max 3.162 µM) | 0.28 | 0.449 | 0.649 | 0.3 | 0.103 | -0.0957 | -0.528 | -0.278 | 0.114 | 0.155 | 0.491 | 0.195
8 | O=C(c1cc(Cc2n[nH]c(=O)c3ccccc23)ccc1F)N1CCN(C(=O)C2CC2)CC1 [Olaparib/AZD2281] (max 10 µM) | 0.36 | 0.679 | 0.773 | 0.685 | 0.832 | 0.618 | 0.0945 | 0.537 | 0.0911 | 0.205 | 0.88 | 0.53
9 | CC(=O)O[C@H]1C(=O)[C@@]2(C)[C@H]([C@H](OC(=O)c3ccccc3)[C@]3(O)C[C@H](OC(=O)[C@H](O)[C@@H](NC(=O)c4ccccc4)c4ccccc4)C(C)=C1C3(C)C)[C@]1(OC(C)=O)CO[C@@H]1C[C@@H]2O [Paclitaxel] (max 1 µM) | -0.22 | -0.494 | -0.271 | 0.0104 | -0.124 | -0.12 | -0.609 | -0.508 | -0.326 | -0.257 | -0.401 | -0.134
10 | CS(=O)(=O)N1CCN(Cc2cc3nc(-c4cccc5[nH]ncc45)nc(N4CCOCC4)c3s2)CC1 [Pictilisib/GDC0941] (max 10 µM) | 0.0266 | -0.237 | -0.565 | 0.278 | 0.331 | 0.305 | -0.938 | -0.923 | 0.13 | 0.341 | -0.205 | -0.147
11 | O=C1NC(=NCc2cccs2)SC1=Cc1ccc2ncccc2c1 [R0-3306] (max 10 µM) | 0.232 | 0.0254 | -0.27 | -0.117 | 0.458 | 0.206 | 0.111 | -0.249 | -0.252 | -0.171 | 0.114 | -0.0261
12 | CNCc1ccc(-c2[nH]c3cc(F)cc4c3c2CCNC4=O)cc1 [Rucaparib] (max 10 µM) | 0.704 | 0.789 | 0.908 | 0.815 | 0.825 | 0.634 | 0.11 | 0.569 | 0.0259 | 0.559 | 0.961 | 0.854
13 | CC1(N)CCN(c2cnc(-c3cccc(Cl)c3Cl)c(N)n2)CC1 [SHP099] (max 10 µM) | 0.904 | 0.779 | 0.952 | 0.797 | 0.929 | 0.943 | 0.626 | 0.976 | 0.523 | 0.866 | 0.937 | 0.879
14 | CN1CCN(CCOc2cc(OC3CCOCC3)c3c(Nc4c(Cl)ccc5c4OCO5)ncnc3c2)CC1 [Saracatinib/AZD0530] (max 10 µM) | 0.258 | 0.774 | 0.0408 | 0.651 | 0.414 | 0.28 | -0.178 | -0.401 | 0.0846 | 0.188 | 0.486 | 0.389
15 | Cc1cc(C(C)Nc2ccccc2)c2nc(N3CCOCC3)cc(=O)n2c1 (stereo not given) [TGX221] (max 10 µM) | 0.91 | 0.85 | 0.331 | 0.838 | 1.05 | 0.851 | 0.799 | -0.158 | 0.705 | 1.02 | 0.755 | 0.799
16 | CN(C)C/C=C/C(=O)Nc1ccc(C(=O)Nc2cccc(Nc3ncc(Cl)c(-c4c[nH]c5ccccc45)n3)c2)cc1 [THZ1] (max 1 µM) | 0.107 | -0.486 | -0.245 | -0.386 | -0.312 | -0.505 | -0.72 | -0.939 | -0.906 | -0.52 | -0.437 | -0.279
17 | CN(C)C/C=C/C(=O)Nc1ccc(C(=O)N2CCC[C@@H](Nc3ncc(Cl)c(-c4c[nH]c5ccccc45)n3)C2)cc1 [THZ531] (max 1 µM) | 0.559 | -0.398 | 0.0226 | -0.282 | -0.0737 | -0.276 | -0.743 | -0.947 | -0.602 | -0.509 | -0.17 | -0.141
18 | CN(C)C/C=C/C(=O)Nc1ccc(C(=O)Nc2cccc(Nc3cc(-c4c[nH]c5ccccc45)ncn3)c2)cc1 [THZ-P1-2] (max 10 µM) | 0.751 | -0.626 | 0.76 | -0.777 | 0.364 | -0.691 | 0.142 | -0.983 | -0.299 | -0.589 | -0.598 | -0.453
19 | Cc1nc(-c2cn3c(n2)-c2ccc(-c4cnn(C(C)(C)C(N)=O)c4)cc2OCC3)n(C(C)C)n1 [Taselisib/GDC0032] (max 10 µM) | -0.413 | -0.152 | -0.535 | 0.121 | 0.074 | 0.0709 | -0.99 | -0.927 | 0.0942 | -0.224 | -0.0187 | -0.105
20 | O=C1NC(=O)[C@@H](c2cn3c4c(cccc24)CCC3)[C@@H]1c1c[nH]c2ccccc12 [Tivantinib/ARQ197] (max 10 µM) | -0.282 | -0.566 | -0.336 | -0.0621 | -0.0779 | -0.0845 | -0.606 | -0.537 | -0.43 | -0.224 | -0.354 | -0.154
21 | Nc1ccc(-c2ccc3ncc4ccc(=O)n(-c5cccc(C(F)(F)F)c5)c4c3c2)cn1 [Torin2] (max 1 µM) | -0.152 | -0.147 | -0.334 | 0.0726 | 0.0112 | -0.0262 | -0.964 | -0.772 | -0.0903 | 0.0058 | -0.351 | 0.0099
22 | CC[C@@H]1C(=O)N(C)c2cnc(Nc3ccc(C(=O)N[C@H]4CC[C@H](N5CCN(CC6CC6)CC5)CC4)cc3OC)nc2N1C(C)C [Volasertib/BI6727] (max 1 µM) | -0.337 | -0.296 | -0.375 | -0.148 | -0.0126 | -0.0186 | -0.497 | -0.675 | -0.388 | -0.297 | -0.409 | -0.159
23 | O=C(CCCCCCC(=O)Nc1ccccc1)NO [Vorinostat] (max 10 µM) | -0.0506 | -0.49 | -0.497 | -0.0085 | 0.318 | -0.385 | -0.939 | -0.945 | -0.0668 | -0.0704 | 0.0882 | -0.157
24 | C=CC(=O)Nc1ccc(C(=O)Nc2[nH]nc3c2CN(C(=O)N[C@H](CN(C)C)c2ccccc2)C3(C)C)cc1 [YKL-5-124] (max 10 µM) | 0.0082 | -0.604 | -0.401 | -0.205 | 0.0267 | -0.19 | -0.835 | -0.919 | -0.406 | -0.104 | 0.0084 | -0.146
25 | CN1CCN(C(=O)c2ccc3cc(CCNc4ncnc5ccc(C#N)cc45)ccc3c2)CC1 [senexin b] (max 10 µM) | 0.755 | 0.229 | 0.642 | 0.394 | 0.776 | 0.892 | 0.271 | 0.168 | 0.656 | 0.747 | 0.742 | 0.213
